Data reported in PMC7855930, “Nontoxic Cobalt(III) Schiff Base Complexes with Broad‐Spectrum Antifungal Activity” (Chemistry (Weinheim an Der Bergstrasse, Germany), 2020).
Like-named read-outs stand apart in the source and are kept apart here.

Tests used:
[1] = system: C. albicans ATCC 90028; test: Antifungal MIC assay (broth microdilution in YNB); type: cell-based, Candida albicans; settings: Candida albicans, ATCC90028
Description: (§1) Yeast strains: Candida albicans (ATCC 90028, NCCLS 11), Cryptococcus neoformans (ATCC 208821, H99 type strain), Candida tropicalis (ATCC 750, type strain), Candida glabrata (ATCC 90030, NCCLS 84) and Cryptococcus deuterogattii (ATCC 32609, type strain) were obtained from the American Type Culture Collection (ATCC). Cryptococcus deuterogattii (CBS 7750), Candida auris (CBS 10913) and Candida auris (CBS 12373) were obtained from the CBS‐KNAW culture collection. The strains were maintained on glycerol/YPD (yeast extract‐peptone dextrose) broth (20:80 v/v) at −80 °C.
(§2) Antifungal minimum inhibitory concentration (MIC) assay: The cobalt complexes and antifungal control compounds were serially diluted in 50 μL of Yeast Nitrogen Broth (YNB; BD, Cat No. 233520 supplemented with 2 % glucose and 10 mM ammonium sulfate) two‐fold across the wells of non‐binding surface (NBS) 96‐well plates (Corning; Cat. No. 3641). Plates were set up in quadruplicate for each strain tested, and two biological replicates were conducted on separate assay days.
(§3) Yeast strains were cultured from glycerol onto YPD (Becton Dickinson 242720) agar at 30 °C for 72 h. For each strain, a minimum of five single colonies were taken from the agar plate and dissolved in sterile water and adjusted to form a yeast suspension of 1×10^6 to 5×10^6 CFU mL^−1 (as determined by OD530). The suspension was subsequently diluted into YNB media, and added to each well of the compound containing plates, giving a final cell density of 2.5×10^3 CFU mL^−1 and a total volume of 100 μL. Plates were covered and incubated at 35 °C for 36 h without shaking.
(§4) Growth inhibition of all strains was determined visually where the MIC was recorded as the lowest compound concentration with no visible growth. Fluconazole (Sigma F8929), ketoconazole (Sigma K1003) and micafungin (Sigma SML2288) were used as internal positive inhibitor controls for every strain tested.

[2] = system: C. auris CBS 10913; test: Antifungal MIC assay (broth microdilution in YNB); type: cell-based, Candida auris; settings: Candidozyma auris, CBS10913
Description: as §1, §2, §3, §4

[3] = system: C. auris CBS 12373; test: Antifungal MIC assay (broth microdilution in YNB); type: cell-based, Candida auris; settings: Candidozyma auris, CBS12373
Description: as §1, §2, §3, §4

[4] = system: C. glabrata ATCC 90030; test: Antifungal MIC assay (broth microdilution in YNB); type: cell-based, Candida glabrata; settings: Nakaseomyces glabratus, ATCC90030
Description: as §1, §2, §3, §4

[5] = system: C. tropicalis ATCC 750; test: Antifungal MIC assay (broth microdilution in YNB); type: cell-based, Candida tropicalis; settings: Candida tropicalis, ATCC750
Description: as §1, §2, §3, §4

[6] = system: C. deuterogattii ATCC 32609; test: Antifungal MIC assay (broth microdilution in YNB); type: cell-based, Cryptococcus deuterogattii; settings: Cryptococcus deuterogattii, ATCC32609
Description: as §1, §2, §3, §4

[7] = system: C. deuterogattii CBS 7750; test: Antifungal MIC assay (broth microdilution in YNB); type: cell-based, Cryptococcus deuterogattii; settings: Cryptococcus deuterogattii, CBS7750
Description: as §1, §2, §3, §4

[8] = system: human red blood cells; test: Haemolysis assay; type: cell-based; settings: 1 h at 37 °C
Experimental: Haemolysis assay: Human whole blood (Australian Red Cross Blood Service) was washed three times with three volumes of 0.9 % NaCl and resuspended in a concentration of 0.5×10^8 cells mL^−1, determined by manual cell count in a Neubauer haemocytometer. Washed cells were added to compound containing plates (384‐well round bottom polypropylene plates, Corning 3657) for a final volume of 50 μL, shaken for 10 min and incubated for 1 h at 37 °C, without shaking. After incubation, the plates were centrifuged at 1000 g for 10 min to pellet cells and debris, 25 μL of the supernatant was then transferred to reading plates (384‐well flat bottom polystyrene plates, Corning CLS3680), with haemolysis determined by measuring the supernatant absorbance at […] (OD405), using cells without inhibitors as negative control and cells with 1 % Triton X‐100 (Sigma T8787) as positive control. HC10 and HC50 (concentration at which 10 and 50 % haemolysis is induced, respectively) were calculated by curve fitting the inhibition values vs. log(concentration) of four replicates using a sigmoidal dose–response function with variable fitting values for top, bottom and slope using Prism 8. Melittin (Sigma M2272) was used as positive haemolytic control on each plate. Human ethics approval from the University of Queensland Institutional Human Research Ethics Committee was obtained for use of human blood for haemolysis studies (approval number 201400003).

[9] = system: Staphylococcus aureus ATCC 43300 (MRSA); test: CO-ADD bacterial broth microdilution MIC assay; type: cell-based; settings: Staphylococcus aureus; CAMHB, 37 °C, 18 h, ≥ 80% inhibition; read-out: MIC Sa (Staphylococcus aureus ATCC 43300, MRSA)
Experimental: (§5) CO-ADD High Throughput Screening
(§6) Bacterial broth microdilution minimum inhibitory concentration (MIC) assay Bacterial strains were cultured in Cation-adjusted Mueller Hinton broth (CAMHB; Bacto Laboratories 212322) at 37 °C overnight. A sample of each culture was then diluted 40-fold in fresh CAMHB and incubated at 37 °C for 1.5-3 h. The resultant mid-log phase cultures were diluted with CAMHB (CFU/mL measured by OD600), then added to each well of the compound-containing plates (384-well non-binding surface (NBS) plates; Corning CLS3640), giving a cell density of 5 × 10^5 CFU/mL and a total volume of 50 µL. Plates were covered and incubated at 37 °C for 18 h without shaking. Inhibition of bacterial growth was determined measuring absorbance at 600 nm (OD600), using media only as negative control and bacteria without inhibitors as positive control. MIC values were determined as the lowest concentration at which the growth was inhibited at ≥ 80%. Colistin sulfate (Sigma C4461) and vancomycin HCl (Sigma 861987) were used as positive inhibitor controls on each plate for Gram-negative and Gram-positive bacteria, respectively.
(§7) Figure S1. 1H NMR (400 MHz) of [Co(ATS)(DMAP)2]NO3 (3) in DMSO-d6.
(§8) (1 picture or pasted object on this page, not shown here)

[10] = system: Klebsiella pneumoniae ATCC 700603 (K6; ESBL SHV-18); type: cell-based; settings: 18 h
Experimental: as §5, §6, §7, §8

[11] = Table S1, read-out: MIC Candida albicans ATCC 90028
[12] = range of MICs, n=8, 35 °C, 36 h, visual, read-out: MIC C. albicans ATCC 90028
[13] = Table S1, read-out: MIC Candida auris CBS 10913
[14] = range of MICs, n=8, 35 °C, 36 h, visual, read-out: MIC C. auris CBS 10913
[15] = Table S1, read-out: MIC Candida auris CBS 12373
[16] = range of MICs, n=8, 35 °C, 36 h, visual, read-out: MIC C. auris CBS 12373
[17] = Table S1, read-out: MIC Candida glabrata ATCC 90030
[18] = range of MICs, n=8, 35 °C, 36 h, visual, read-out: MIC C. glabrata ATCC 90030
[19] = Table S1, read-out: MIC Candida tropicalis ATCC 750
[20] = range of MICs, n=8, 35 °C, 36 h, visual, read-out: MIC C. tropicalis ATCC 750
[21] = Table S1, read-out: MIC Cryptococcus deuterogattii ATCC 32609
[22] = range of MICs, n=8, 35 °C, 36 h, visual, read-out: MIC C. deuterogattii ATCC 32609
[23] = Table S1, read-out: MIC Cryptococcus deuterogattii CBS 7750
[24] = range of MICs, n=8, 35 °C, 36 h, visual, read-out: MIC C. deuterogattii CBS 7750

Row | MIC [1, 11] [µg/mL] | MIC [1, 12] [µM] | MIC [2, 13] [µg/mL] | MIC [2, 14] [µM] | MIC [3, 15] [µg/mL] | MIC [3, 16] [µM] | MIC [4, 17] [µg/mL] | MIC [4, 18] [µM] | MIC [5, 19] [µg/mL] | MIC [5, 20] [µM] | MIC [6, 21] [µg/mL] | MIC [6, 22] [µM] | MIC [7, 23] [µg/mL] | MIC [7, 24] [µM] | MIC [9] [µg/mL] | MIC Kp (Klebsiella pneumoniae ATCC 700603) [10] [µg/mL] | SMILES | Haem HC10 (concentration at which 10 % haemolysis is reached) [8] [µM]
1 | > 23.2 | > 100 | > 23.2 | > 100 | > 23.2 | > 100 | > 23.2 | > 100 | > 23.2 | > 100 | > 23.2 | > 100 | > 23.2 | > 100 | > 32 | > 32 | CC(=N\NC(N)=S)/C(C)=N/NC(N)=S [Compound L1] | >100
2 | > 33.2 | > 100 | > 33.2 | > 100 | > 33.2 | > 100 | > 33.2 | > 100 | > 33.2 | > 100 | > 33.2 | > 100 | > 33.2 | > 100 | > 32 | > 32 | CC(/C=C(\O)C(F)(F)F)=N\CC/N=C(C)/C=C(\O)C(F)(F)F [Compound L2] | >100
3 | > 30.4 | > 100 | > 30.4 | > 100 | > 30.4 | 100 | > 30.4 | > 100 | > 30.4 | > 100 | > 30.4 | 100 | > 30.4 | > 100 | > 32 | > 32 | Oc1c(F)cccc1/C=N/CC/N=C/c1cccc(F)c1O [Compound L3] | >100
